Results taken from publication PMC8248052 (Chembiochem, 2021).

Target: T1, SMYD3 (Homo sapiens, UniProt Q9H7B4)
T1 sequence (Q9H7B4 1-428): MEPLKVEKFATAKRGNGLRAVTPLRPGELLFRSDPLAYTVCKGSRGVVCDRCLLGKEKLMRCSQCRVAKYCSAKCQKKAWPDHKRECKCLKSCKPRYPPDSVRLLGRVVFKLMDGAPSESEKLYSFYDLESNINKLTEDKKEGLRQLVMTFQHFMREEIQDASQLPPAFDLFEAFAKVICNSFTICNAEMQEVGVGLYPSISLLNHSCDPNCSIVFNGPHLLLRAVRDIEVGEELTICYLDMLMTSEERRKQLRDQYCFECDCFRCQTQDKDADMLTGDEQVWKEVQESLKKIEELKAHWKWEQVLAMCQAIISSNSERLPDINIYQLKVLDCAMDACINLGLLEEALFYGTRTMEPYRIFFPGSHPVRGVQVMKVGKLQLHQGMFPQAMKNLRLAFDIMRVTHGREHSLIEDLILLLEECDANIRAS
Assay: LC-MS methyltransferase assay, MAP3K2 […]-274 peptide, inhibition at […]
Type: biochemical
Conditions: 0.63 µM

Inhibition [%]: 52.8±1.7
SMILES: O=C1Cc2cc(C(=O)NC3C[C@H]4CC[C@@H](C3)N4S(=O)(=O)CC3CCN(CCCC(F)(F)F)CC3)c(Cl)cc2N1 (stereo partly shown) [EPZ031686]
